Test results from PubChem BioAssay AID258 (DTP/NCI, 2004).
Several values for one entry are separate records, joined by “and”; a condition that tells them apart may be missing. Identical values can stand only once. Toxic doses and inconclusive results are not listed. How the source made its calls: active means survival T/C of 150% or more; inactive means T/C below 125% in these data.

Tested on: CD2F1 mice, L1210 leukemia sc, survival T/C
Assay: NCI In Vivo Anticancer Drug Screen. Data for tumor model L1210 Leukemia (subcutaneous) in CD2F1 (CDF1) mice
Conditions: higher = longer survival
In short: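 Mice with transplanted tumor dosed; survival/tumor size read; T/C vs vehicle controls.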

Measured: T/C

O=c1[nH]c(=O)n(C2CC(O)C(CO)O2)cc1F (configuration not stated)
active: endpoint: median survival time, dose: 125.0 mg/kg/injection, schedule: Q01DX009 (ip), vehicle: saline 150 % of control | endpoint: median survival time, dose: 250.0 mg/kg/injection, schedule: Q01DX006 (ip), vehicle: saline 162 % of control | endpoint: median survival time, dose: 250.0 mg/kg/injection, schedule: Q01DX009 (ip), vehicle: saline 162 % of control | endpoint: median survival time, dose: 250.0 mg/kg/injection, schedule: Q02DX005 (ip), vehicle: saline 150 % of control | endpoint: median survival time, dose: 500.0 mg/kg/injection, schedule: Q02DX005 (ip), vehicle: saline 156 % of control | endpoint: median survival time, dose: 500.0 mg/kg/injection, schedule: Q04DX003 (ip), vehicle: saline 150 % of control | endpoint: median survival time, dose: 1000.0 mg/kg/injection, schedule: Q01DX001 (ip), vehicle: saline 150 % of control
inactive: endpoint: median survival time, dose: 5.0 mg/kg/injection, schedule: Q01DX009 (ip), vehicle: saline 107 % of control | endpoint: median survival time, dose: 5.0 mg/kg/injection, schedule: Q01DX009 (sc), vehicle: saline 104 % of control | endpoint: median survival time, dose: 10.0 mg/kg/injection, schedule: Q01DX009 (ip), vehicle: saline 108 % of control | endpoint: median survival time, dose: 10.0 mg/kg/injection, schedule: Q01DX009 (sc), vehicle: saline 109 % of control | endpoint: median survival time, dose: 15.6 mg/kg/injection, schedule: Q01DX006 (ip), vehicle: saline 112 % of control | endpoint: median survival time, dose: 15.6 mg/kg/injection, schedule: Q01DX009 (ip), vehicle: saline 118 % of control | endpoint: median survival time, dose: 20.0 mg/kg/injection, schedule: Q01DX009 (ip), vehicle: saline 119 % of control | endpoint: median survival time, dose: 20.0 mg/kg/injection, schedule: Q01DX009 (sc), vehicle: saline 106 % of control and 121 % of control | endpoint: median survival time, dose: 30.0 mg/kg/injection, schedule: Q01DX009 (sc), vehicle: saline 107 % of control | endpoint: median survival time, dose: 31.3 mg/kg/injection, schedule: Q01DX006 (ip), vehicle: saline 106 % of control | endpoint: median survival time, dose: 31.3 mg/kg/injection, schedule: Q01DX009 (ip), vehicle: saline 118 % of control | endpoint: median survival time, dose: 31.3 mg/kg/injection, schedule: Q02DX005 (ip), vehicle: saline 112 % of control | endpoint: median survival time, dose: 31.3 mg/kg/injection, schedule: Q04DX003 (ip), vehicle: saline 112 % of control | endpoint: median survival time, dose: 40.0 mg/kg/injection, schedule: Q01DX009 (ip), vehicle: saline 122 % of control | endpoint: median survival time, dose: 40.0 mg/kg/injection, schedule: Q01DX009 (sc), vehicle: saline 122 % of control | endpoint: median survival time, dose: 60.0 mg/kg/injection, schedule: Q01DX009 (ip), vehicle: saline 124 % of control | endpoint: median survival time, dose: 62.5 mg/kg/injection, schedule: Q01DX001 (ip), vehicle: saline 112 % of control | endpoint: median survival time, dose: 62.5 mg/kg/injection, schedule: Q04DX003 (ip), vehicle: saline 100 % of control | endpoint: median survival time, dose: 80.0 mg/kg/injection, schedule: Q01DX009 (ip), vehicle: saline 118 % of control | endpoint: median survival time, dose: 120.0 mg/kg/injection, schedule: Q01DX009 (ip), vehicle: saline 110 % of control | endpoint: median survival time, dose: 120.0 mg/kg/injection, schedule: Q01DX009 (sc), vehicle: saline 106 % of control | endpoint: median survival time, dose: 125.0 mg/kg/injection, schedule: Q01DX001 (ip), vehicle: saline 112 % of control | endpoint: median survival time, dose: 125.0 mg/kg/injection, schedule: Q02DX005 (ip), vehicle: saline 118 % of control | endpoint: median survival time, dose: 125.0 mg/kg/injection, schedule: Q04DX003 (ip), vehicle: saline 112 % of control | endpoint: median survival time, dose: 130.0 mg/kg/injection, schedule: Q01DX Z (sc), vehicle: saline 116 % of control | endpoint: median survival time, dose: 160.0 mg/kg/injection, schedule: Q01DX009 (ip), vehicle: saline 106 % of control and 123 % of control | endpoint: median survival time, dose: 160.0 mg/kg/injection, schedule: Q01DX009 (sc), vehicle: saline 112 % of control | endpoint: median survival time, dose: 216.0 mg/kg/injection, schedule: Q01DX Z (sc), vehicle: saline 116 % of control | endpoint: median survival time, dose: 240.0 mg/kg/injection, schedule: Q01DX009 (ip), vehicle: saline 96 % of control | endpoint: median survival time, dose: 360.0 mg/kg/injection, schedule: Q01DX Z (sc), vehicle: saline 116 % of control | endpoint: median survival time, dose: 600.0 mg/kg/injection, schedule: Q01DX Z (sc), vehicle: saline 108 % of control

O=C(CCBr)N1CCN(C(=O)CCBr)CC1
inactive: endpoint: median survival time, dose: 28.0 mg/kg/injection, schedule: Q01DX Z (sc), vehicle: methylcellulose (MC) 111 % of control | endpoint: median survival time, dose: 47.0 mg/kg/injection, schedule: Q01DX Z (sc), vehicle: methylcellulose (MC) 111 % of control | endpoint: median survival time, dose: 78.0 mg/kg/injection, schedule: Q01DX Z (sc), vehicle: methylcellulose (MC) 122 % of control | endpoint: median survival time, dose: 360.0 mg/kg/injection, schedule: Q01DX Z (sc), vehicle: methylcellulose (MC) 122 % of control

CCN(CC)c1ccc2cc3ccc(=[N+](CC)CC)cc-3oc2c1
inactive: endpoint: median survival time, dose: 0.5 mg/kg/injection, schedule: Q01DX Z (sc), vehicle: methylcellulose (MC) 100 % of control | endpoint: median survival time, dose: 1.0 mg/kg/injection, schedule: Q01DX Z (sc), vehicle: methylcellulose (MC) 100 % of control | endpoint: median survival time, dose: 2.0 mg/kg/injection, schedule: Q01DX Z (sc), vehicle: methylcellulose (MC) 100 % of control | endpoint: median survival time, dose: 4.0 mg/kg/injection, schedule: Q01DX Z (sc), vehicle: methylcellulose (MC) 100 % of control | endpoint: median survival time, dose: 8.0 mg/kg/injection, schedule: Q01DX Z (sc), vehicle: methylcellulose (MC) 100 % of control

CC1CN=C(c2ccc(NC(=O)c3ccc(C(=O)Nc4ccc(C5=NCC(C)N5)cc4)cc3)cc2)N1 (configuration not stated)
inactive: endpoint: median survival time, dose: 1.8 mg/kg/injection, schedule: Q01DX Z (sc), vehicle: water 115 % of control
active: endpoint: median survival time, dose: 3.0 mg/kg/injection, schedule: Q01DX Z (sc), vehicle: water 155 % of control | endpoint: median survival time, dose: 5.0 mg/kg/injection, schedule: Q01DX Z (sc), vehicle: water 240 % of control | endpoint: median survival time, dose: 8.4 mg/kg/injection, schedule: Q01DX Z (sc), vehicle: water 255 % of control | endpoint: median survival time, dose: 14.0 mg/kg/injection, schedule: Q01DX Z (sc), vehicle: water 230 % of control

CO[C@H](/C(C)=C/C=C/C(C)=C/c1coc(C)n1)[C@H](C)[C@H]1C[C@@H](O)[C@@]2(C)O[C@H]2/C=C/[C@@H](C)[C@@H]2C[C@@H](CC(=O)O2)C[C@H]2O[C@@H]2C(=O)O1
inactive: endpoint: median survival time, dose: 0.25 mg/kg/injection, schedule: Q01DX009 (ip), vehicle: Klucel (hydroxypropylcellulose) (HPC) 107 % of control | endpoint: median survival time, dose: 1.0 mg/kg/injection, schedule: Q01DX009 (ip), vehicle: Klucel (hydroxypropylcellulose) (HPC) 119 % of control

COC12C(COC(N)=O)C3=C(C(=O)C(C)=C(N)C3=O)N1CC1C2N1C (configuration not stated)
inactive: endpoint: median survival time, dose: 2.0 mg/kg/injection, schedule: Q01DX009 (ip), vehicle: saline 101 % of control | endpoint: median survival time, dose: 3.75 mg/kg/injection, schedule: Q01DX009 (ip), vehicle: saline 105 % of control | endpoint: median survival time, dose: 4.0 mg/kg/injection, schedule: Q01DX009 (ip), vehicle: saline 120 % of control | endpoint: median survival time, dose: 7.5 mg/kg/injection, schedule: Q01DX009 (ip), vehicle: saline 110 % of control | endpoint: median survival time, dose: 15.0 mg/kg/injection, schedule: Q01DX009 (ip), vehicle: saline 117 % of control | endpoint: median survival time, dose: 16.0 mg/kg/injection, schedule: Q01DX009 (ip), vehicle: saline 101 % of control

Nc1ccn(C2OC(COP(=O)(O)O)C(O)C2O)c(=O)n1 (configuration not stated)
active: endpoint: mean survival time, dose: 22.5 mg/kg/injection, schedule: Q ##X009 (ip), vehicle: saline 181 % of control | endpoint: mean survival time, dose: 45.0 mg/kg/injection, schedule: Q ##X009 (ip), vehicle: saline 206 % of control | endpoint: mean survival time, dose: 90.0 mg/kg/injection, schedule: Q ##X009 (ip), vehicle: saline 161 % of control | endpoint: mean survival time, dose: 180.0 mg/kg/injection, schedule: Q ##X009 (ip), vehicle: saline 176 % of control | endpoint: median survival time, dose: 22.5 mg/kg/injection, schedule: Q ##X009 (ip), vehicle: saline 179 % of control | endpoint: median survival time, dose: 22.5 mg/kg/injection, schedule: Q## X Z (ip), vehicle: saline 188 % of control | endpoint: median survival time, dose: 45.0 mg/kg/injection, schedule: Q ##X009 (ip), vehicle: saline 198 % of control | endpoint: median survival time, dose: 45.0 mg/kg/injection, schedule: Q## X Z (ip), vehicle: saline 211 % of control | endpoint: median survival time, dose: 90.0 mg/kg/injection, schedule: Q ##X009 (ip), vehicle: saline 175 % of control | endpoint: median survival time, dose: 90.0 mg/kg/injection, schedule: Q## X Z (ip), vehicle: saline 183 % of control | endpoint: median survival time, dose: 180.0 mg/kg/injection, schedule: Q ##X009 (ip), vehicle: saline 169 % of control | endpoint: median survival time, dose: 180.0 mg/kg/injection, schedule: Q## X Z (ip), vehicle: saline 177 % of control

C[C@]12C[C@H](O)[C@H]3[C@@H](CCC4=CC(=O)CC[C@@]43C)[C@@H]1CC[C@@H]2C(=O)CO
inactive: endpoint: median survival time, dose: 180.0 mg/kg/injection, schedule: Q01DX Z (sc), vehicle: methylcellulose (MC) 100 % of control

Nc1nc(N)c2[nH]cnc2n1
inactive: endpoint: median survival time, dose: 20.0 mg/kg/injection, schedule: Q01DX Z (sc), vehicle: steriod suspending solution 106 % of control | endpoint: median survival time, dose: 40.0 mg/kg/injection, schedule: Q01DX Z (sc), vehicle: steriod suspending solution 100 % of control | endpoint: median survival time, dose: 80.0 mg/kg/injection, schedule: Q01DX Z (sc), vehicle: steriod suspending solution 100 % of control | endpoint: median survival time, dose: 160.0 mg/kg/injection, schedule: Q01DX Z (sc), vehicle: steriod suspending solution 100 % of control
